Assay results reported in patent US4782092A, “5,8-dichloro-4-hydroxy-1-[(aminoalkyl) amino]-9,10-anthracenediones, pharmaceutical compositions and use” (Mid-America Cancer Center, priority 1986, dated 1988).
pIC50: −log10 of the molar value. “And” between values parts separate entries of the source, which are not always exact repeats. Identical values can stand only once. Like-named read-outs stand apart in the source and are kept apart here.

How the values were obtained:
[1] = tested on: L1210 Leukemia; experiment: growth-inhibitory effects against mouse tumor line L1210 in suspension cell culture; type: cell-based; details: L1210, 72 h
Protocol: In another test protocol, growth-inhibitory effects are measured against the mouse tumor line L1210 in suspension cell culture. Cell cultures were initiated at a density of 50,000 cells/ml in medium RPMI […] supplemented with 10 percent fetal calf serum. Composition of this culture medium and details of the culture procedure follow the published method (Journal of the National Cancer Institute 36, 405-415, 1966). Cultures are maintained at 37 degrees in stationary suspension culture under a 95 percent air +5 percent CO2 atmosphere. Test compounds are added to treated cultures at the time of initiation, and are present continually. After 72 hours, 40-fold dilutions of drug-treated and untreated control cultures are prepared in 0.9 percent NaCl solution, and cells are counted on an electronic particle counter. The growth-inhibitory effects are expressed as ID50 values, namely test compound inhibitory dosages or concentrations required to decrease cell count in treated cultures to 50 percent of the cell count of untreated control cultures.

[2] = tested on: B16 Melanoma; experiment: solid tumor B16 melanoma in mice; type: in vivo, mice (B6C3F1); details: IP/IP, QOID × 9
Protocol: Another test protocol utilizes the solid tumor B16 melanoma in mice. The tumor is inoculated by intraperitoneal injection. The test compounds are administered intraperitoneally once daily for nine consecutive days at various doses following tumor inoculation. A ratio of survival time for treated (T)/control (C) animals is calculated. A criterion for efficacy is a ratio T/C times 100 greater than or equal to […]. See Cancer Therapy Reviews, 7,167(1980) and references cited therein for further details and interpretation of the test.
*Procedure described in Cancer Chemotherapy Reviews, 7, 167 (1980) and
references cited therein.

[3] = tested on: Branhamella catarrhalis PD03596; experiment: in vitro antibacterial/antifungal (ABF) agar-disk diffusion assay, Branhamella catarrhalis; type: cell-based; details: Moraxella catarrhalis, 5.0 mg/ml, read-out: Inhibition Zone Diameter
Protocol: (§1) One test protocol is the in vitro antibacterial/antifungal (ABF) test. Compounds are tested for antimicrobial activity in an agar-disk diffusion assay, a standard microbiological technique for testing antibiotics. After incubation of each culture with a test compound, a zone of inhibition is determined. The zone diameter (mm) of active compounds ranges from a minimum of 14 mm to as high as 18 mm, with a greater diameter reflecting higher activity. For convenience, values are reported for three gram-negative bacterial species, Alcaligenes viscolactis ATCC 21698, Escherichia coli Tol and PD04863, Branhamella catarrhalis PD03596; and one gram-positive bacterium, Bacillus subtilis PD04555.

[4] = tested on: Escherichia coli Tol; experiment: in vitro antibacterial/antifungal (ABF) agar-disk diffusion assay, Escherichia coli Tol; type: cell-based; details: read-out: Inhibition Zone Diameter
Protocol: as §1

[5] = tested on: Escherichia coli PD08463; experiment: in vitro antibacterial/antifungal (ABF) agar-disk diffusion assay, Escherichia coli PD08463; type: cell-based; details: 5.0 mg/ml, read-out: Inhibition Zone Diameter
Protocol: as §1

[6] = tested on: P388 Leukemia; experiment: in vivo lymphocytic leukemia P388 test; design: species or system mice (CD2 F1); details: IP/IP, QOID × 5
Protocol: Another test protocol is the in vivo lymphocytic leukemia P388 test. The animals used are either male or female CD2 F1 mice, six or seven animals per test group. The tumor transplant is by intraperitoneal injection of dilute ascitic fluid containing cells of lymphocytic leukemia P388. The test compounds are administered intraperitoneally once daily for five consecutive days at various doses following tumor inoculation. The animals are weighed and survivors are recorded on a regular basis for 30 days. A compound is designated "toxic" if, at a given dose, all animals died prior to four days after the first injection of drug. A ratio of survival time for treated (T)/control (C) animals is calculated. A criterion for efficacy is a ratio T/C times 100 greater than or equal to 125. See Cancer Chemotherapy Reports, Part 3, 3, 1 (1972) for a comprehensive discussion of the protocol.

[7] = tested on: Alcaligenes viscolactis (ATCC-21698); experiment: in vitro antibacterial/antifungal (ABF) agar-disk diffusion assay, Alcaligenes viscolactis; type: cell-based; details: read-out: Inhibition Zone Diameter
Protocol: as §1

[8] = tested on: Bacillus subtilis PD04555; experiment: in vitro antibacterial/antifungal (ABF) agar-disk diffusion assay, Bacillus subtilis; type: cell-based; details: read-out: Inhibition Zone Diameter
Protocol: as §1

[9] = Test 1, read-out: Molar Concentration Required for 50% Inhibition of Growth (ID50)
[10] = Test 2, read-out: Molar Concentration Required for 50% Inhibition of Growth (ID50)
[11] = 25 mg/kg, listed as 5,8-Dichloro-4-hydroxy-1-[ [2-[(2-hydroxyethyl)aminoethyl]amino]-7,10-anthracene
[12] = 50 mg/kg, listed as 5,8-Dichloro-4-hydroxy-1-[ [2-[(2-hydroxyethyl)aminoethyl]amino]-7,10-anthracene
[13] = 100 mg/kg, listed as 5,8-Dichloro-4-hydroxy-1-[ [2-[(2-hydroxyethyl)aminoethyl]amino]-7,10-anthracene

Q: How did the pIC50 [1, 9] turn out when `O=C1c2c(O)ccc(NCCNCCO)c2C(=O)c2c(Cl)ccc(Cl)c21` [5,8-dichloro-4-hydroxy-1-[[2-[(2-hydroxyethyl)aminoethyl]amino]]-9,10-anthracenedione] was run?
A: The pIC50 was 7.06.

Q: What about the pIC50 [1, 10] of the same compound?
A: Its pIC50 is 6.95.

Q: And the “T/C × 100” value ([2]; 6.25 mg/kg)?
A: The value was 166%.

Q: And the “T/C × 100” value ([2]; 12.5 mg/kg)?
A: Its value is 172%.

Q: What about the cures ([2]; 12.5 mg/kg) of the same compound?
A: The cures was “cures”.

Q: And the “T/C × 100” value ([2]; 20 mg/kg)?
A: Its value is 224%.

Q: And the cures ([2]; 25 mg/kg)?
A: The cures was “cures”.

Q: What about the “T/C × 100” value [2, 11] of the same compound?
A: The value was 199% and 130%.

Q: What about the “T/C × 100” value ([2]; 40 mg/kg) of the same compound?
A: The value was 231%.

Q: What about the cures ([2]; 40 mg/kg) of the same compound?
A: The cures was “cures”.

Q: What about the cures ([2]; 50 mg/kg) of the same compound?
A: Its cures is “cures”.

Q: What about the “T/C × 100” value [2, 12] of the same compound?
A: Its value is 252% and 143%.

Q: And the “T/C × 100” value ([2]; 80 mg/kg)?
A: Its value is 271%.

Q: And the cures ([2]; 80 mg/kg)?
A: The cures was “cures”.

Q: What about the cures ([2]; 100 mg/kg) of the same compound?
A: Its cures is “cures”.

Q: What about the “T/C × 100” value [2, 13] of the same compound?
A: Its value is 270% and 191%.

Q: What about the “T/C × 100” value ([2]; 160 mg/kg) of the same compound?
A: The value was 326%.

Q: And the “T/C × 100” value ([2]; 200 mg/kg, listed as 5,8-Dichloro-4-hydroxy-1-[ [2-[(2-hydroxyethyl)aminoethyl]amino]-7,10-anthracene)?
A: Its value is 180% and 172%.

Q: What about the “T/C × 100” value ([2]; 400 mg/kg) of the same compound?
A: The value was 190%.

Q: What about the zone of inhibition at 5000 µg/mL [3] of the same compound?
A: The zone of inhibition at 5000 µg/mL was 14 mm.

Q: What about the zone of inhibition at 1000 µg/mL ([4]; 1.0 mg/ml) of the same compound?
A: The zone of inhibition at 1000 µg/mL was 15 mm.

Q: And the zone of inhibition at 5000 µg/mL ([4]; 5.0 mg/ml)?
A: Its zone of inhibition at 5000 µg/mL is 18 mm.

Q: And the zone of inhibition at 5000 µg/mL [5]?
A: The zone of inhibition at 5000 µg/mL was 14 mm.

Q: And the “T/C × 100” value ([6]; 6.25 mg/kg)?
A: The value was 154%.

Q: And the “T/C × 100” value ([6]; 12.5 mg/kg)?
A: The value was 146%.

Q: What about the cures ([6]; 25 mg/kg) of the same compound?
A: The cures was “cures”.

Q: And the “T/C × 100” value [6, 11]?
A: The value was 242% and 163%.

Q: What about the “T/C × 100” value [6, 12] of the same compound?
A: The value was 175% and 188% and 177%.

Q: And the “T/C × 100” value [6, 13]?
A: The value was 235% and 202%.

Q: What about the zone of inhibition at 1000 µg/mL ([7]; ATCC21698, 1.0 mg/ml) of the same compound?
A: The zone of inhibition at 1000 µg/mL was 14 mm.

Q: And the zone of inhibition at 5000 µg/mL ([7]; ATCC21698, 5.0 mg/ml)?
A: Its zone of inhibition at 5000 µg/mL is 15 mm.

Q: What about the zone of inhibition at 1000 µg/mL ([8]; 1.0 mg/ml) of the same compound?
A: Its zone of inhibition at 1000 µg/mL is 14 mm.

Q: What about the zone of inhibition at 5000 µg/mL ([8]; 5.0 mg/ml) of the same compound?
A: Its zone of inhibition at 5000 µg/mL is 16 mm.

Q: Which results are given for `CN(C)CCNc1ccc(O)c2c1C(=O)c1c(Cl)ccc(Cl)c1C2=O` [5,8-dichloro-4-hydroxy-1-[2-(dimethylamino)ethyl]amino-9,10-anthracenedione]?
A: pIC50 [1, 9]: 7.04; pIC50 [1, 10]: 7.09
